Read-outs that look alike come from different tables or passages of the source.
Assays:
[1] = test system: human platelet rich plasma; assay type: cell-based
Method: To determine the effects brought about on platelets by the compounds used in Examples 16 through 18, the test for recovery of function of platelets was carried out by the following procedure.
First, a solution of 20,000 ppm of isopropyl decyl maleate in methanol (Example 19), a solution of 20,000 ppm of isopropyl tetradecyl maleate in methanol (Example 20), a solution of 20,000 ppm of isopropyl decyl itaconate in methanol (Example 21), a solution of 20,000 ppm of di-2-ethylhexyl maleate in methanol (Control 24), a solution of 20,000 ppm of di-2-ethylhexyl phthalate in methanol (Control 25), a solution of 20,000 ppm of dinormal decyl phthalate in methanol (Control 26), and methanol containing no added compound (blank) were prepared. These solutions were severally added to human […] in a fixed amount of 1/100. […]
To determine the effects exerted on platelets by 2-ethylhexyl isostearate used in Example 24 and 2-ethylhexyl 2-ethylhexanoate used in Example 25, a test for the recovery of function of platelets was carried out by following the procedure of Examples 19 through 21. […] The procedure of Examples 19 through 21 was repeated on these solutions to determined maximum capacity for aggregation with respect to 50µM ADP and 10µg/ml collagen in the presence of 0.2 mg of fibrinogen per ml.

[2] = test system: human concentrated red cells; assay: Hemolysis of stored CRC, reagent added as Tween 80/physiological saline emulsion; plasma hemoglobin by TMB method; assay type: cell-based; conditions: final concentration 0.5 mM, emulsion, 4°C, 4 weeks
Method: Isopropyl isotridecyl maleate was added to a 2000ug/ml polyoxyethylene monooleate (reagent-grade product of Wako Junyaku K.K. marketed under trademark designation of "Tween 80")/physiological saline mixed solution in such an amount to be contained therein in a final concentration of 4mM. A 0.2ml aliquot of the resultant emulsion was added to a human concentrated red cells (hereinafter referred to as "CRC") adjusted in advance to a hematocrit value of about 70% so as to be contained therein in a final concentration indicated in Table 1. The resulting liquid was placed in a stoppered polypropylene tube and left standing at rest at 4°C for 4 weeks. At the end of this standing, it was tested for plasma hemoglobin concentration by the TMB method (Clin. Chem., 23, 749-(1977)).
An emulsion was prepared by following the procedure of Example 1, except that isopropyl decyl maleate was used in place of isopropyl-isotridecyl maleate. A CRC sample incorporating the emulsion was left standing and thereafter tested for plasma hemoglobin concentration.
Emulsions were prepared by following the procedure of Excample 1, except that di-2-ethylhexyl phthalate (Control 1) and diisopropyl maleate, a carboxylic ester compound deviating from the scope of the present invention (Control 2) were respectively used in place of isopropyl isotridecyl maleate. CRC samples severally incorporating the emulsions were left standing and, thereafter, tested for plasma hemoglobin concentration.
Glycerine-l-butyl-3-isostearyl ether was added to a 2000 ug/ml polyoxyethylene monooleate (regent-grade product of Wako Junyaku K.K. marketed under trademark designation of "Tween 80")/ physiological saline mixed solution so as to be contained therein in a final concentration of 4 mM. A 0.2ml aliquot of the resultant emulsion was added to CRC adjusted in advance to a hematocrit value of about 70% so as to be contained therein in a final concentration indicated in Table 3. The resultant liquid was placed in a stoppered polypropylene tube and left standing at 4°C for 4 weeks. Thereafter, it was tested for plasma hemoglobin concentration by following the procedure of Example 1.
An emulsion was prepared by following the procedure of Example 5, except that glycerine-1,3-dioctyl ether was used in place of glycerine- l-butyl-3-isostearyl ether. A CRC sample incorporating the resultant emulsion was left standing and, thereafter, tested for plasma hemoglobin concentration. Controls 7 and 8
Emulsions were prepared by following the procedure of Example 5, except that di-2-ethylhexyl phthalate (Control 7) and glycerine monooctyl ether, an ether compound deviating from the scope of the present invention, (Control 8) were respectively used in place of glycerine-l-butyl-3-isostearyl ether. CRC samples incorporating the emulsions were left standing and, thereafter, tested for plasma hemoglobin concentration.
Isopropyl isolaurate was dispersed in a 2000 ug/ml poloxyethylene monooleate (reagent-grade product of Wako Junyaku K.K. marketed under trademark designation of "Tween 80")/physiological saline mixed solution so as to be contained therein in a concentration of 4 mM. A 0.2-ml aliquot of the resultant emulsion was added to CRC adjusted in advance to a hematocrit value of about 70% so as to be contained therein in a final concentration indicated in Table 5. The resultant liquid was placed in a stoppered polypropylene tube and left standing at 4°C for 4 weeks. Thereafter, it was tested for plasma hemoglobin concentration by following the procedure of Example 1.
An emulsion was prepared by following the procedure of Example 9, except that 2-ethylhexyl isostearate was used in place of isopropyl isolaurate. A CRC sample incorporating the resultant emulsion was left standing and, thereafter, tested for plasma hemoglobin concentration.

platelets = conditions: Jouranl of Japan blood Transfusion Society, 28(3) 282 (1981); cited from earlier work
[3] = test system: human platelet rich plasma; assay: Platelet aggregation in platelet rich plasma (Aggrecoder); assay type: cell-based; conditions: for activity at 400 µM: Homo sapiens, Platelet, 2 h, 40 mM methanol solution added in 1/100, room temperature 2 hours, relative to blank
Method: A 40 mM methanol solution of isopropyl isotridecyl maleate (Example 13), a 40 mM methanol solution of glycerine-l-butyl-3-isostearyl ether (Example 14), a 40 mM methanol solution of isopropyl isolaurate (Example 15), a 40 mM methanol solution of di-2-ethylhexyl phthalate (Control 19) and methanol containing no added compound (Control 20) were severally added to a human platelet rich plasma (count of platelets about 300,000/mm ) in a fixed amount of 1/100, left standing at room temperature for 2 hours, and tested for platelet aggregation by the use of an instrument (product of Kyoto Daiichikagaku K.K. marketed under "Aggrecoder").
The percentage of transmittance of light through the solution of platelet rich plasma containing a given sample to the maximum transmittance of light through the same solution of platelet rich plasma not containing the sample (blank) was reported as the ratio of aggregation of the sample. As aggregation inducers, 5 µM ADP (adenosine diphosphoric acid) and 5 ug/ml collagen were used.

erythrocytes = conditions: dissolving from flexible vinyl chloride resin container into preserved blood; Blood (1984); cited from earlier work

SMILES: CCCCC(CC)COC(=O)C(CC)CCCC (stereo not shown) [2-ethylhexyl 2-ethylhexanoate]
- action on recovery of ability of platelet aggregation (in words) [1]: produced no discernible action to curb recovery of the ability of platelet aggregation

SMILES: CCCCC(CC)COC(=O)CCCCCCCCCCCCCCC(C)C (stereo not shown) [2-ethylhexyl isostearate]
- action on recovery of ability of platelet aggregation (in words) [1]: produced no discernible action to curb recovery of the ability of platelet aggregation

SMILES: CCCCC(CC)COC(=O)c1ccccc1C(=O)OCC(CC)CCCC (stereo not shown) [Di-2-ethylhexyl phthalate, reference compound]
- Hemoglobin concentration in plasma ([2]; Table 1): 41 Mg/ml
- Hemoglobin concentration in plasma ([2]; Table 3): 62 mg/mL
- Hemoglobin concentration in plasma ([2]; Table 5): 35 mg/mL
- effect on aggregating ability of platelets (in words) (platelets): hinders the aggregating ability of platelets
- activity at 400 µM ([3]; read-out: Ratio of platelet aggregation, aggregation inducer 5 µM ADP): 92.1%
- activity at 400 µM ([3]; read-out: Ratio of platelet aggregation, aggregation inducer 5 µg/ml collagen): 89.6%
- effect on aggregating ability of platelets (in words) ([3]; summary of Table 7): produced a discernible effect of curbing the recovery of the aggregating ability of platelets
- effect on hemolysis of erythrocytes (in words) (erythrocytes): serves to hinder the hemolysis of erythrocytes
